The values that follow come from US12180207B2 (ARRAY BIOPHARMA INC., priority 2018, dated 2024).

Assay [1] deals with phosphorylated FGFR3 (SEQ ID NO: 5, amino acids 449 to 759) (Homo sapiens (Human), UniProt P22607). Briefly: FGFR enzyme binding assay (HTRF tracer displacement), FGFR3. Particulars: 5 nM phosphorylated FGFR3, average of multiple determinations if made. The procedure:
(§1) The potency of compounds inhibiting human isoforms of FGFR kinase was determined using Life Technologies' Homogeneous Time Resolved Fluorescence (HTRF)-based binding assay technology. […] After a 60 minute incubation at 22° C., the extent of tracer displacement was determined using a PerkinElmer EnVision multimode plate reader via HTRF dual wavelength detection, and the percent of control (POC) was calculated using a ratiometric emission factor. One hundred POC was determined using no test compound, and 0 POC was determined in the presence of 1 μM of an appropriate control inhibitor.

The target in assay [2] is FGFR3 (SEQ ID NO: 5, amino acids 449-759) (Homo sapiens (Human), UniProt P22607). Briefly: LC/MS FGFR3 kobs assay (covalent protein modification). Particulars: 500 nM FGFR3, 3 μM compound. It counts as binding. The procedure:
(§2) The LC/MS FGFR1 and FGFR3 kobs assays were conducted as follows. […] At each time point, the reaction was quenched with 20 μL of 0.4% formic acid. The extent of protein modification by each compound was determined by LC/MS on an Agilent Technologies 6520 Q-TOF LC/MS. Protein signals were then automatically deconvoluted using Agilent Masshunter software. Deconvoluted mass signals were exported to Tibco Spotfire data analysis program for further processing and normalization.
(§3) Data analysis included five steps. First, the signals for the “DMSO Controls” were analyzed to determine the percent of signal associated with unmodified FGFR1 or FGFR3 at each time point. Next, the percent of the signal associated with the covalent modification was determined. Third, the average nonmodified “DMSO Control” signal was used to normalize the modified protein signals at each time point. The percent of unmodified protein was fit to an exponential decay model where A0 is the Percent Unmodified at the start of the reaction, and kobs is the observed rate constant over the time period.
Table EC contains kobs values for compounds tested in these assays, presented as the average of multiple determinations if multiple determinations were made. ND=not determined.

The target of assay [3] is recombinant human FGFR2 cytoplasmic domain (amino acids 403-822) (Homo sapiens (Human), UniProt P21802). Briefly: FGFR2 enzyme activity assay (LanthaScreen TR-FRET). It counts as biochemical. The conditions noted are these: 15 μM ATP, 20 min incubation at 22° C., average of multiple determinations if made, read-out: FGFR2 Enz FRET IC50. The procedure: FGFR2 kinase activity was measured by the Invitrogen LanthaScreen™ Assay technology which directly measures the amount of substrate phosphorylation by TR-FRET using a fluorescently-labeled peptide and Europium-labeled antibody. Briefly, […] His-tagged recombinant human FGFR2 cytoplasmic domain (amino acids 403-822) (Life Technologies Cat. No. PR5332A) was incubated with 100 nM Alexa Fluor® 647-Poly-GT Peptide Substrate (Life Technologies Cat. No. PV5836) and 15 μM ATP along with test compound in a buffer consisting of 250 mM HEPES, 25 mM MgCl2, 0.05% TritonX-100, pH 7.5, and 2% DMSO. […] After a 20 minute incubation at 22° C., an equal volume of 2 nM LanthaScreen® Eu-PY20 Antibody (Life Technologies Cat. No. PV5691) and 10 mM EDTA were added to quench the kinase reaction and start the detection reaction. After an additional 60 minute incubation at 22° C., the reaction was measured using a PerkinElmer EnVision multimode plate reader via TR-FRET dual wavelength detection, and the percent of control (POC) calculated using a ratiometric emission factor. 100 POC was determined using no test compounds and 0 POC was determined using no enzyme. The POC values were fit to a 4-parameter logistic curve as a function of the concentration of the compound, and the IC50 value is the point where the curve crosses 50 POC.
For orientation: In TR-FRET formats the signal depends on donor and acceptor labels being close together.

Assay [4] deals with dephosphorylated FGFR1 (SEQ ID NO: 1, amino acids 458 to 765) (Homo sapiens (Human), UniProt P11362). Briefly: FGFR enzyme binding assay (HTRF tracer displacement), FGFR1. Particulars: 5 nM dephosphorylated FGFR1, average of multiple determinations if made. On the procedure: as §1
Assay [5] deals with recombinant human FGFR3 (amino acids R397-T806) (Homo sapiens (Human), UniProt P22607). Briefly: FGFR3 enzyme activity assay (LanthaScreen TR-FRET). It counts as biochemical. Particulars: 25 μM ATP, 10 min incubation at 22° C., average of multiple determinations if made, read-out: FGFR3 Enz FRET IC50. The procedure:
FGFR3 kinase activity was measured by the Invitrogen LanthaScreen™ Assay technology which directly measures the amount of substrate phosphorylation by TR-FRET using a fluorescently-labeled peptide and Europium-labeled antibody. Briefly, […] N-terminal GST-HIS6 fusion protein with a 3C cleavage site recombinant human FGFR3 (amino acids R397-T806) (ProQinase Cat. No. 1068-0000-1) was incubated with 100 nM Alexa Fluor® 647-Poly-GT Peptide Substrate (Life Technologies Cat. No. PV5836) and 25 μM ATP along with test compound in a buffer consisting of 250 mM HEPES, 25 mM MgCl2, 0.05% TritonX-100, pH 7.5, and 2% DMSO. […] After a 10 minute incubation at 22° C., an equal volume of 2 nM LanthaScreen® Eu-PY20 Antibody (Life Technologies Cat. No. PV5691) and 10 mM EDTA were added to quench the kinase reaction and start the detection reaction. After an additional 60 minute incubation at 22° C., the reaction was measured using a PerkinElmer EnVision multimode plate reader via TR-FRET dual wavelength detection, and the percent of control (POC) calculated using a ratiometric emission factor. 100 POC was determined using no test compounds and 0 POC was determined using no enzyme. The POC values were fit to a 4-parameter logistic curve as a function of the concentration of the compound, and the IC50 value is the point where the curve crosses 50 POC.

The target of assay [6] is FGFR1 (SEQ ID NO: 1, amino acids 458-765) (Homo sapiens (Human), UniProt P11362). Briefly: LC/MS FGFR1 kobs assay (covalent protein modification). It counts as binding. The conditions noted are these: 500 nM FGFR1, 3 μM compound. On the procedure:
as §2, §3

In assay [7] the target is recombinant human FGFR1 catalytic domain (amino acids 308-731) (Homo sapiens (Human), UniProt P11362). Briefly: FGFR1 enzyme activity assay (LanthaScreen TR-FRET). It counts as biochemical. The conditions noted are these: 20 min incubation at 22° C., average of multiple determinations if made, read-out: FGFR1 Enz FRET IC50. The procedure:
FGFR1 kinase activity was measured by the Invitrogen LanthaScreen™ Assay technology which directly measures the amount of substrate phosphorylation by Time-resolved fluorescence energy transfer (TR-FRET) using a fluorescently-labeled peptide and Europium-labeled antibody. Briefly, […] His-tagged recombinant human FGFR1 catalytic domain (amino acids 308-731) (Life Technologies Cat. No. PR4660A) was incubated with 100 nM Alexa Fluor® 647-Poly-GT Peptide Substrate (Life Technologies Cat. No. PV5836) and […] ATP along with test compound in a buffer consisting of 250 mM HEPES, 25 mM MgCl2, 0.05% TritonX-100, pH 7.5, and 2% DMSO. […] After a 20 minutes incubation at 22° C., an equal volume of 2 nM LanthaScreen® Eu-PY20 Antibody (Life Technologies Cat. No. PV5691) and 10 mM EDTA was added to quench the kinase reaction and start the detection reaction. After an additional 60 minute incubation at 22° C., the reaction was measured using a PerkinElmer EnVision multimode plate reader via TR-FRET dual wavelength detection, and the percent of control (POC) calculated using a ratiometric emission factor. 100 POC was determined using no test compounds and 0 POC was determined using no enzyme. The POC values were fit to a 4-parameter logistic curve as a function of the concentration of the compound, and the IC50 value is the point where the curve crosses 50 POC.

Sequence of FGFR3 (SEQ ID NO: 5, amino acids 449-759) (P22607 449-759): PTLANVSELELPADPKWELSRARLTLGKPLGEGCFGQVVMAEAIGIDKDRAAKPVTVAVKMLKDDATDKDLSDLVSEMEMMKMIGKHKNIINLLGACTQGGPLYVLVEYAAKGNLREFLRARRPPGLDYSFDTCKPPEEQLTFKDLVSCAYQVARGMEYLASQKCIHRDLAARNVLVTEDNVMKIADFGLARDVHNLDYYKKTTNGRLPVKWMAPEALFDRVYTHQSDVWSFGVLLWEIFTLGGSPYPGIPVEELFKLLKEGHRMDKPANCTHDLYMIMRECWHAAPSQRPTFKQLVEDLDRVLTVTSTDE
Sequence of phosphorylated FGFR3 (SEQ ID NO: 5, amino acids 449 to 759) (P22607 449-759): as above
Sequence of FGFR1 (SEQ ID NO: 1, amino acids 458-765) (P11362 458-765): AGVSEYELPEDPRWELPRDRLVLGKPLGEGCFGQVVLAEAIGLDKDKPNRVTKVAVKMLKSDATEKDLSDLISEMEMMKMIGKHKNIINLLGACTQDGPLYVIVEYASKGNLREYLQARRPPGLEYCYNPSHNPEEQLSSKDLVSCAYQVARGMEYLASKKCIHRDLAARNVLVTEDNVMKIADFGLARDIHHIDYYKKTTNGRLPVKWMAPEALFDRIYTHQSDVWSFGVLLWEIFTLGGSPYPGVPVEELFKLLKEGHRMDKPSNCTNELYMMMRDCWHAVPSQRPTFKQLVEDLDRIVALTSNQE
Sequence of dephosphorylated FGFR1 (SEQ ID NO: 1, amino acids 458 to 765) (P11362 458-765): as above
Sequence of recombinant human FGFR3 (amino acids R397-T806) (P22607 397-806): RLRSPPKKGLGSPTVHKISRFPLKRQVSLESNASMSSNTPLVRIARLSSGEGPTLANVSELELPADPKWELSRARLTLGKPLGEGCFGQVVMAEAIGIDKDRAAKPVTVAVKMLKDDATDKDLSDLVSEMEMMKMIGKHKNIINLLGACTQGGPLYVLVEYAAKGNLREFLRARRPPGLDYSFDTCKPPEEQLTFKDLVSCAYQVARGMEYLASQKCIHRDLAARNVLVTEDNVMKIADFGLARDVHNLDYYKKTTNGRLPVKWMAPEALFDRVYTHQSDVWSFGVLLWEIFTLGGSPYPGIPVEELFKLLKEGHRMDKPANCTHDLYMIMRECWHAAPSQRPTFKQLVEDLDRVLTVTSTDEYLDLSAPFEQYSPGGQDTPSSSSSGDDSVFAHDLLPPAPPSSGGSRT
Sequence of recombinant human FGFR1 catalytic domain (amino acids 308-731) (P11362 other isoform, or with tags, fused parts or gaps): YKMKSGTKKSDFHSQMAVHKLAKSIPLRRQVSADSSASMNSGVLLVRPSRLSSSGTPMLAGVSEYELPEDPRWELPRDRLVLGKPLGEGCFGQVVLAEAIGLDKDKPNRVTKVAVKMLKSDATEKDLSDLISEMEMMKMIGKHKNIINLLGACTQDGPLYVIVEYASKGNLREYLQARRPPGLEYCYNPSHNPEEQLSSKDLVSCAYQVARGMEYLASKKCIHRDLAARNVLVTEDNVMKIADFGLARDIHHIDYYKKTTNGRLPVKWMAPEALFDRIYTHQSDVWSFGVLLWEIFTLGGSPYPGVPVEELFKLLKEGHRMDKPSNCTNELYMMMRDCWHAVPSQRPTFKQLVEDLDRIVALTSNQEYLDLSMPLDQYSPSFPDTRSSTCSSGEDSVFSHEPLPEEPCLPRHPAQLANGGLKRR
Sequence of recombinant human FGFR2 cytoplasmic domain (amino acids 403-822) (P21802 402-821): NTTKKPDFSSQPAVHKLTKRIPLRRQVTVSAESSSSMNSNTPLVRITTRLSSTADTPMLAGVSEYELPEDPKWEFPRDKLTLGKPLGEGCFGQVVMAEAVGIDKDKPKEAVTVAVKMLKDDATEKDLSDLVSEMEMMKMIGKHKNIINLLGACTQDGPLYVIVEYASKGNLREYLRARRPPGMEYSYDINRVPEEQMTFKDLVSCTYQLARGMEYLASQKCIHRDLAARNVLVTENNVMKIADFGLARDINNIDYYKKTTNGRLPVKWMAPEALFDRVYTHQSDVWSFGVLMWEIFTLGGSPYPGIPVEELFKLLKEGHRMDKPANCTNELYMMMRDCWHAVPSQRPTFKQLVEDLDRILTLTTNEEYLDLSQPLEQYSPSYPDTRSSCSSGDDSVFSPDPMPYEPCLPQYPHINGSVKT

On to `C=CC(=O)N1CC2CC(C1)N2C(=O)N1CCC(n2cc(-c3cc(OC)c4c(C#N)cnn4c3)cn2)CC1` [Example 4, 6-(1-(1-(3-acryloyl-3,6-diazabicyclo[3.1.1]heptane-6-carbonyl)piperidin-4-yl)-1H-pyrazol-4-yl)-4-methoxypyrazolo[1,5-a]pyridine-3-carbonitrile], for which the half-maximal inhibitory concentration (IC50) was found to be 0.006 µM in assay [1]; 0.004 µM in assay [3]; 0.042 µM in assay [4]; 0.003 µM in assay [5]; 0.011 µM in assay [7]. The “FGFR3 Enz kobs” value in assay [2] worked out at 0.00283 min⁻¹. The “FGFR1 Enz kobs” value in assay [6] is 0.00052 min⁻¹.
Regarding `C=CC(=O)N1C[C@H]2C[C@@H]1CN2C(=O)N1CCC(n2cc(-c3cc(OC)c4c(C#N)cnn4c3)cn2)CC1` [Example 5, 6-(1-(1-((1R,4R)-5-acryloyl-2,5-diazabicyclo[2.2.1]heptane-2-carbonyl)piperidin-4-yl)-1H-pyrazol-4-yl)-4-methoxypyrazolo[1,5-a]pyridine-3-carbonitrile], the IC50 came out at 0.005 µM in assay [1]; 0.011 µM in assay [3]; 0.047 µM in assay [4]; 0.007 µM in assay [5]; 0.025 µM in assay [7]. In assay [2], the “FGFR3 Enz kobs” value came to 0.00287 min⁻¹. In addition, the “FGFR1 Enz kobs” value in assay [6] is 0.00047 min⁻¹.
As for `C=CC(=O)N1CCC[C@H](C(=O)N2CCC(n3cc(-c4cc(OC)c5c(C#N)cnn5c4)cn3)CC2)C1` [Example 16, (S)-6-(1-(1-(1-acryloylpiperidine-3-carbonyl)piperidin-4-yl)-1H-pyrazol-4-yl)-4-methoxypyrazolo[1,5-a]pyridine-3-carbonitrile], the IC50 came to 0.006 µM in assay [1]; 0.004 µM in assay [3]; 0.031 µM in assay [4]; 0.002 µM in assay [5]; 0.02 µM in assay [7]. Also, the “FGFR3 Enz kobs” value in assay [2] is 0.00124 min⁻¹. In addition, in assay [6], the “FGFR1 Enz kobs” value is 0.00054 min⁻¹.
As for `C=CC(=O)N1CCC[C@@H](C(=O)N2CCC(n3cc(-c4cc(OC)c5c(C#N)cnn5c4)cn3)CC2)C1` [Example 17, (R)-6-(1-(1-(1-acryloylpiperidine-3-carbonyl)piperidin-4-yl)-1H-pyrazol-4-yl)-4-methoxypyrazolo[1,5-a]pyridine-3-carbonitrile], the half-maximal inhibitory concentration (IC50) in assay [1] came out at 0.008 µM; in assay [3] it was 0.007 µM; in assay [4], 0.045 µM; in assay [5], 0.006 µM; in assay [7], 0.017 µM. In addition, the “FGFR3 Enz kobs” value in assay [2] was 0.00163 min⁻¹. Further, in assay [6], the “FGFR1 Enz kobs” value came to 0.00041 min⁻¹.
Turning to `C=CC(=O)N1CCN(c2cccc(-n3cc(-c4cc(OC)c5c(C#N)cnn5c4)cn3)c2)CC1` [Example 27, 6-(1-(3-(4-acryloylpiperazin-1-yl)phenyl)-1H-pyrazol-4-yl)-4-methoxypyrazolo[1,5-a]pyridine-3-carbonitrile], the half-maximal inhibitory concentration (IC50) was determined as 0.044 µM in assay [1]; 0.013 µM in assay [3]; 0.191 µM in assay [4]; 0.021 µM in assay [5]; 0.063 µM in assay [7]. In assay [2], the “FGFR3 Enz kobs” value was 0.00184 min⁻¹. Besides, in assay [6], the “FGFR1 Enz kobs” value came out at 0.00017 min⁻¹.
As to `C=CC(=O)N1CC2(CC(C(=O)N3CCC(n4cc(-c5cc(OC)c6c(C#N)cnn6c5)cn4)CC3)C2)C1` [Example 47, 6-(1-(1-(2-acryloyl-2-azaspiro[3.3]heptane-6-carbonyl)piperidin-4-yl)-1H-pyrazol-4-yl)-4-methoxypyrazolo[1,5-a]pyridine-3-carbonitrile], the IC50 in assay [1] came out at 0.022 µM; in assay [3], 0.005 µM; in assay [4] it was 0.177 µM; in assay [5] it was 0.004 µM; in assay [7] it was 0.035 µM. For the same molecule, the “FGFR3 Enz kobs” value in assay [2] was determined as 0.00501 min⁻¹. For the same molecule, the “FGFR1 Enz kobs” value in assay [6] turned out to be 0.00093 min⁻¹.
In the case of `C=CC(=O)N1CCC2(CC1)CC(C(=O)N1CCC(n3cc(-c4cc(OC)c5c(C#N)cnn5c4)cn3)CC1)C2` [Example 48, 6-(1-(1-(7-acryloyl-7-azaspiro[3.5]nonane-2-carbonyl)piperidin-4-yl)-1H-pyrazol-4-yl)-4-methoxypyrazolo[1,5-a]pyridine-3-carbonitrile], the IC50 in assay [1] came to 0.025 µM; in assay [3], 0.003 µM; in assay [4], 0.109 µM; in assay [5] it was 0.007 µM; in assay [7], 0.011 µM. The “FGFR3 Enz kobs” value in assay [2] amounted to 0.00114 min⁻¹. Besides, the “FGFR1 Enz kobs” value in assay [6] was 0.00071 min⁻¹.
Consider `C=CC(=O)N1CC[C@H](C(=O)N2CC[C@@H](n3cc(-c4cc(OC)c5c(C#N)cnn5c4)cn3)C2)C1` [Example 57, 6-(1-((R)-1-((S)-1-acryloylpyrrolidine-3-carbonyl)pyrrolidin-3-yl)-1H-pyrazol-4-yl)-4-methoxypyrazolo[1,5-a]pyridine-3-carbonitrile], for which the IC50 in assay [1] came to 0.025 µM; in assay [3] it was 0.007 µM; in assay [4], 0.214 µM; in assay [5] it was 0.006 µM; in assay [7] it was 0.034 µM. Also, in assay [2], the “FGFR3 Enz kobs” value stood at 0.0015 min⁻¹. Moreover, the “FGFR1 Enz kobs” value in assay [6] was found to be 0.00051 min⁻¹.

Broadly, the IC50 is the concentration that inhibits the measured activity by half.
